Data as given in US11857584B2, “Oncolytic virus growth method and antitumor agent” (KABUSHIKI KAISHA YAKULT HONSHA, priority 2017, dated 2024).

Experiments:
CVA11 = test: Promotion of CVA11 proliferation (virus titer) in WiDr cells; type: cell-based, coxsackievirus A11; settings: then CVA11 MOI 0.01, about 30 hours, t-test
CVB3 = test: Promotion of CVB3 proliferation (virus titer) in WiDr cells; type: cell-based, coxsackievirus B3
[1] = Body weight change (adverse event) in WiDr-bearing nude mice; settings: oxaliplatin 100 μg i.p. day 1; CVA11 5×10^7 PFU intratumoral days 2, 4, 6, 8, 10
Experimental: WiDr was washed with PBS and suspended in OPTI-MEM I at 5.0×10^7 cells/mL. 100 μl of the suspension containing WiDr was injected subcutaneously with a 27 G needle into the right flank of BALB/c nude mice of 6-8 weeks old. […] The tumor volume was calculated by major axis×minor axis×minor axis×0.5. The test was conducted using 5 mice in each group, and the t-test was used as the test.

AAV = test: Promotion of AAV proliferation (virus copy number, real-time PCR) in WiDr cells; type: cell-based
Experimental: pAAV-CMV Vector (manufactured by Takara Bio Co., Ltd.) was used as AAV. pAAV-CMV Vector was prepared using AAVpro (registered trademark) Helper Free System (manufactured by Takara Bio Co., Ltd.). The collected supernatant (virus solution) was stored at −80° C.
The cultured oxaliplatin-resistant colon cancer cell line (WiDr) was suspended in DMEM medium at […]. To each well of a 96-well plate, 100 μl of the obtained cell suspension was dispensed and the cells were seeded at 3×10^5 cells/well. […] Subsequently, the plate was allowed to stand for about 24 hours at 37° C., 5% CO2, and then AAV was added thereto at a MOI of 0.01. After the plate was allowed to stand for about 30 hours at 37° C., 5% CO2, virus copy numbers were measured using AAVpro (registered trademark) Titration Kit (for Real Time PCR) Ver.2 (manufactured by Takara Bio Co., Ltd.). The t-test was used as the test.

[2] = system: DAF (decay accelerating factor); test: Virus receptor expression by real-time PCR in WiDr cells, DAF; type: cell-based, human; settings: oxaliplatin 50 μM about 42 hours, or CVA11 added about 20 hours after seeding, t-test
Experimental: (§1) The cultured oxaliplatin-resistant colon cancer cell line (WiDr) was suspended in DMEM medium at 3×10^6 cells/mL. To each well of a 96-well plate, 100 μl of the obtained cell suspension was dispensed and the cells were seeded at 3×10^5 cells/well. […] Thereafter, the plate was allowed to stand for about 42 hours at 37° C., 5% CO2, and then mRNA was collected to prepare cDNA. […] The expressions of DAF (decay accelerating factor) and ICAM-1 (intercellular adhesion molecule 1) were compared by real-time PCR. The t-test was used as the test.

[3] = system: ICAM-1 (intercellular adhesion molecule 1); test: Virus receptor expression by real-time PCR in WiDr cells, ICAM-1; type: cell-based, human; settings: oxaliplatin 50 μM about 42 hours, or CVA11 added about 20 hours after seeding, t-test
Experimental: as §1

O=c1[nH]cc(F)c(=O)[nH]1 [5-FU, 5-fluorouracil]
CVA11 virus load (virus titer) (CVA11; 5-FU 50 μM): significant increase in CVA11 virus load

CCc1c2c(nc3ccc(O)cc13)-c1cc3c(c(=O)n1C2)COC(=O)[C@]3(O)CC [SN-38, 7-ethyl-10-hydroxycamptothecin]
CVA11 virus load (virus titer) (CVA11; SN-38 1.0, 5.0 or 50 μM): significant increase in CVA11 virus load

N.N.[Cl][Pt][Cl] [cisplatin]
CVB3 virus load (virus titer) (CVB3; cisplatin 0.5 or 1.0 μM, then CVB3 MOI 0.01): no increase in CVB3 virus load was observed

O=C1[O][Pt]2([NH][C@@H]3CCCC[C@H]3[NH]2)[O]C1=O [oxaliplatin]
body weight loss, compared with untreated group [1]: no significant weight loss was observed | CVA11 virus load (virus titer) (CVA11; oxaliplatin 50 μM, vs CVA11 only): significant increase in CVA11 virus load | CVB3 virus load (virus titer) (CVB3; oxaliplatin 1 μM, then CVB3 MOI 0.01, t-test): significant increase | CVB3 virus load (virus titer) (CVB3; oxaliplatin 0.5 or 1.0 μM, then CVB3 MOI 0.01, about 30 hours): increase in CVB3 virus load was observed | copy number of AAV (AAV; oxaliplatin 0.25, 0.5, 1.0 or 2.5 μM, then AAV MOI 0.01, about 30 hours, t-test): significant, increase in the copy number of AAV | copy number of AAV (AAV; oxaliplatin 0.25 to 1.0 μM, then AAV MOI 0.01): remarkable increase | expression of DAF (real-time PCR) [2]: significantly increased | expression of ICAM-1 (real-time PCR) [3]: significantly increased
